Source: patent publication US20030092613A1, “Alpha7 nicotinic receptor peptides as ligands for beta amyloid peptides” (priority 2000, published 2003)
Read-outs that look alike come from different tables or passages of the source.

Columns and labels:
[1] = system: guinea pig hippocampal synaptosomes; assay: ACh release from guinea pig hippocampal synaptosomes (β-amyloid inhibition of K+-evoked release); format: cell-based; settings: attenuation of β-amyloid's inhibition on potassium-evoked ACh release
Description: ACh release from guinea pig hippocampal synaptosomes: Synaptosomes (P2 fraction) were prepared from guinea pig hippocampus as described previously and re-suspended in a Krebs-Ringer solution containing 0.1 μM [methyl-^3H]choline chloride (NEN, Boston, Mass.) and incubated at 37° C. for 30 min. Unincorporated choline was removed by washing and the synaptosomes were resuspended in Krebs-Ringer solution to 10 mg/mL. ACh release from synaptosomes was measured using the parallel superfusion chambers (Hugo Sachs Elektronik, March-Hugstetten, Germany) according to that described earlier (Wang, H. -Y. et al Neuropeptides 1999; 33, 197-205). […]
The tissues were treated with peptides and ACh release was evoked by superfusing with 65 mM K^+-Krebs-Ringer (made by equimolar replacement of NaCl with KCl) for 30 seconds. […] The amount of ^3H in the superfusate samples was measured by liquid scintillation spectrometry.
Tritiurn efflux into the superfusate was calculated as the fraction of ^3H content in the synaptosomes at the onset of the respective collection period. […]
Data are expressed as the mean fractional ^3H release±S.E.M. Statistical differences between treatments were tested by Student's t test, two-tailed or the two-factor ANOVA as appropriate. Individual differences in the dose-response curve were evaluated by the Newman-Keuls multiple comparison test.

Biotin-huma7-5 [2] = assay: Fluo-β-amyloid1-42 binding assay to Biotin-huma7-5; set-up: species or system human
[3] = biological target: huma7 peptide / β-amyloid1-40 (Homo sapiens, UniProt P36544); assay: Huma7 binding assay: 125I-β-amyloid1-40 binding to immobilized huma7 peptide
huma7 peptide / β-amyloid1-40, sequence (P36544 193-224): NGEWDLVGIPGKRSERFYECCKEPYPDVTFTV

Biotin-huma7-5 [4] = system: Biotin-huma7-5; set-up: species or system human; settings: read-out: IC50, 125I-α-BTX binding to Biotin-huma7-5
α7nAChR = biological target: T1, α7nAChR (Homo sapiens, UniProt P36544); assay: α7nAChR binding assay: 125I-β-amyloid1-40 binding to α7SK-N-MC membranes (SPA); settings: inhibition of 125I-β-amyloid1-40 (20 pM) binding to α7SK-N-MC membranes
T1 construct: expressed in transfected cells; host or cells: SK-N-MC (ATCC HTB-10), membranes
T1 sequence (P36544 23-502): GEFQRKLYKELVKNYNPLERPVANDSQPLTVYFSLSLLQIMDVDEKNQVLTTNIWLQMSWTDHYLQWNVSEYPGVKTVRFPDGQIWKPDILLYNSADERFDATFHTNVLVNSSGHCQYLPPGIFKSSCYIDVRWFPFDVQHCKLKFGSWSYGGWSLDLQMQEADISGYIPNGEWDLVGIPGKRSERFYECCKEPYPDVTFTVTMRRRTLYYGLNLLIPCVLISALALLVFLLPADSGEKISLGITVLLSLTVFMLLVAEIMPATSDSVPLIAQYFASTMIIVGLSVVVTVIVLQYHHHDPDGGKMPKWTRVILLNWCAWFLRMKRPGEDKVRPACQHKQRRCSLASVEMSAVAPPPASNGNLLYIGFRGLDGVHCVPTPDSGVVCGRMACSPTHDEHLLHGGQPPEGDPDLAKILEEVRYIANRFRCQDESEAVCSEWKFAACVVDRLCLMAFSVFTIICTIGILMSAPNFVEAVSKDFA
Description: α7nAChR (nicotinic acetylcholine receptor) binding assay: Membranes from recombinant SK-N-MC cells (ATCC#HTB-10) overexpressing α7nAChR (α7SK-N-MC) were prepared according to standard procedures (Wang et al, J. Biol Chem. 275, 5626-5632, 2000) except that the membranes were thoroughly washed. For each assay, membranes (20 μg) were precoupled to wheat germ agglutinin yittrium SPA beads (250 μg, Amersham) in 50 mM HEPES (pH 7.5) containing 0.01% BSA, 2 mM Mg^2+, 2 mM Ca^2+ and protease inhibitors (Boehringer Mannheim, Germany). […] At the end of the incubation (30 min), bound radioactivity was measured in a TopCount (Packard, Meriden, Conn.). Data were analyzed using Graphpad Prism software (Graphpad Software Incorporated).

[5] = first phase, read-out: Calculated EC50 for biphasic response, EC50 - 1
[6] = second phase, read-out: Calculated EC50 for biphasic response, EC50 - 2

| Molecule | IC50 (Biotin-huma7-5 [4]) | EC50 (α7nAChR; [5]) | EC50 (α7nAChR; [6]) | other results |
| --- | --- | --- | --- | --- |
| 28 (ECCK) [compound 28] |  |  |  | ACh rel % Inh @ 100 μM [1]: 87% |
| α-bungarotoxin [α-BTX] | 100 nM |  |  | % Inh @ 100 μM, Fluo-β-amyloid1-42 binding to Biotin-huma7-5 (Biotin-huma7-5 [2]): 100%; inhibition of 125I-β-amyloid1-40 binding to immobilized huma7 [3]: can be inhibited |
| N[C@@H](Cc1ccc(O)cc1)C(=O)N1CCC[C@H]1C(=O)N[C@@H](Cc1c[nH]c2ccccc12)C(=O)N[C@@H](Cc1ccccc1)C(=O)O [YPWF peptide, YPWF] |  | 0.00351 nM | 20.3 nM |  |
| CC(C)C[C@H](NC(=O)[C@H](CCCCN)NC(=O)[C@H](CCC(N)=O)NC(=O)[C@H](Cc1c[nH]cn1)NC(=O)[C@H](Cc1c[nH]cn1)NC(=O)[C@@H](N)C(C)C)C(=O)N[C@H](C(=O)N[C@@H](Cc1ccccc1)C(=O)N[C@@H](Cc1ccccc1)C(=O)N[C@@H](C)C(=O)N[C@@H](CCC(=O)O)C(=O)N[C@@H](CC(=O)O)C(=O)N[C@H](C(=O)NCC(=O)N[C@@H](CO)C(=O)N[C@@H](CC(N)=O)C(=O)N[C@@H](CCCCN)C(=O)O)C(C)C)C(C)C [Aβ12-28] | 400 nM |  |  |  |
| CCCN(CCC)C1Cc2c(O)ccc(O)c2CC1C (centres unmarked) [Inhibitor A] |  | 0.133 nM | 34700 nM | inhibition of 125I-β-amyloid1-40 binding to immobilized huma7 ([3]; 10 μM inhibitors, FIG. 2): can be inhibited |
| Aβ42: β-amyloid peptide1-42 |  |  |  | % Inh @ 100 μM, Fluo-β-amyloid1-42 binding to Biotin-huma7-5 (Biotin-huma7-5 [2]; 100 μM, 100 nM Fluo-β-amyloid1-42, 1 hr at 25° C.): 85% |
